From patent US7064229B2, “Succinic acid derivatives” (Bayer Healthcare AG, priority 2001, dated 2006)

How the values were obtained:
[1] = target: α4β1 integrin (VLA-4) on Ramos cells / recombinant human VCAM-1 (extracellular domains 1–3) (Homo sapiens, UniProt P05556+P13612); assay: Adhesion of Ramos cells to immobilized VCAM-1 (domains 1–3); type: cell-based; parameters: host or cells: Ramos cells; conditions: Ramos VCAM-1 assay; observed IC50 value ranges
Source text: In Vitro Assay: Adhesion of Ramos Cells to Immobilized VCAM-1 (Domains 1–3) Preparation of VCAM-1 (Extracellular Domains 1–3)
Complementary DNA (cDNA) encoding 7-domain form of VCAM-1 (GenBank accession #M60335) was obtained using Rapid-Screen™ cDNA library panels (OriGene Technologies, Inc) at Takara Gene Analysis Center (Shiga, Japan). The primers used were 5′-CCAAGGCAGAGTACGCAAAC-3′ (sense) and 5′-TGGCAGGTATTATTAAGGAG-3′ (antisense). PCR amplification of the 3-domain VCAM-1 cDNA was perform using Pƒ. DNA polymerase (Stratagene) with the following sets of primers: (U-VCAMdl-3) 5′-CCATATGGTACCTGATCAATTTAAAATCGAGACCACCCCAGAA-3′; (L-VCAMdl-3) 5′-CCATATAGCAATCCTAGGTCCAGGGGAGATCTCAACAGTAAA-3′. PCR cycle was 94° C. for 45 sec, 55° C. for 45 sec, 72° C. for 2 min, repeating 15 cycles. After the purification of the PCR product, the fragment was digested with KpnI-AvrII. The digested fragment was ligated into pBluescript IISK(−) (Strategene), which was linearized by digesting with KpnI-XhoI. The ligation was followed by transformation to a Dam/Dcm methylase-free E. coli strain SCS110 (Strategene) to create the donor plasmid pHH7. To direct VCAM-1 molecule into the insect cell secretory pathway, the VCAM-1 coding sequence was fused to signal peptide sequence of honeybee melittin. The resulting melittin-VCAM fusion was placed in correct orientation to the baculovirus polyhedrin promoter. Baculovirus transfer vector containing first 3-domain form VCAM-1 (pH10) was constructed by ligation of 0.9 kb fragment from AvrII/Klenow/BclI digests of pH7 into SalI/Klenow/BamHI digests of pMelBacB (Invitrogen). […] The recombinant virus was amplified by infection to High-Five™ insect cells for 5–6 days, and virus titer was determined by plaque assay.
High-Five™ insect cells were pelleted in a 225 ml conical tube by centrifugation at 1000 rpm for 5 min. […] Protein concentration was determined by using Coomassie protein assay reagent (Pierce) according to the manufacture's instruction. […]
Preparation of Fluorescence Labeled Ramos Cells […]

Chain of α4β1 integrin (VLA-4) on Ramos cells / recombinant human VCAM-1 (extracellular domains 1–3) (P13612 34-1032): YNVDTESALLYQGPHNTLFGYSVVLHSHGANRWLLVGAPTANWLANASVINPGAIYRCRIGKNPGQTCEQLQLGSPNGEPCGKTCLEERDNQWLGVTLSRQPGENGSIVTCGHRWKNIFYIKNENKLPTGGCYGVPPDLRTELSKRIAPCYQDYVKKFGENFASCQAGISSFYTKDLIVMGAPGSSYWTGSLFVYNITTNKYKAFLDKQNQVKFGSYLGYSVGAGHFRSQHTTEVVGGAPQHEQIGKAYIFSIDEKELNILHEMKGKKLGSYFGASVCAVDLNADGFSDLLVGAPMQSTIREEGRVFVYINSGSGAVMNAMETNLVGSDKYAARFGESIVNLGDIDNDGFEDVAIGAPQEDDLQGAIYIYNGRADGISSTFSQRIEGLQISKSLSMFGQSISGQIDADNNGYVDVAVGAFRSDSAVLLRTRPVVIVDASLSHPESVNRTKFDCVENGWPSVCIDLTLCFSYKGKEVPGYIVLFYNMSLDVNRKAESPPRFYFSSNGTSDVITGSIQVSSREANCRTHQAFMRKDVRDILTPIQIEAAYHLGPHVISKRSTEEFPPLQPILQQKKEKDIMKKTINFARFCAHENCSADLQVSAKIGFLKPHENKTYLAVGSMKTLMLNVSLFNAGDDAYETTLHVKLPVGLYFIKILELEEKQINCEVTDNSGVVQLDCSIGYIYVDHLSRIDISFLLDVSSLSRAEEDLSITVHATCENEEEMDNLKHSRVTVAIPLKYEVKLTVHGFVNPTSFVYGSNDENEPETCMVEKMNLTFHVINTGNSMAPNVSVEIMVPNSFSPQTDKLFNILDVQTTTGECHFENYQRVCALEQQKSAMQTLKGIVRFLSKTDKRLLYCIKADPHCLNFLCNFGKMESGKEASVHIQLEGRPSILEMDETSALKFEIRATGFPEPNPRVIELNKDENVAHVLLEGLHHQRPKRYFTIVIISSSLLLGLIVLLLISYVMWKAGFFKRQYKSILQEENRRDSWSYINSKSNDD
Chain of α4β1 integrin (VLA-4) on Ramos cells / recombinant human VCAM-1 (extracellular domains 1–3) (P05556 21-798): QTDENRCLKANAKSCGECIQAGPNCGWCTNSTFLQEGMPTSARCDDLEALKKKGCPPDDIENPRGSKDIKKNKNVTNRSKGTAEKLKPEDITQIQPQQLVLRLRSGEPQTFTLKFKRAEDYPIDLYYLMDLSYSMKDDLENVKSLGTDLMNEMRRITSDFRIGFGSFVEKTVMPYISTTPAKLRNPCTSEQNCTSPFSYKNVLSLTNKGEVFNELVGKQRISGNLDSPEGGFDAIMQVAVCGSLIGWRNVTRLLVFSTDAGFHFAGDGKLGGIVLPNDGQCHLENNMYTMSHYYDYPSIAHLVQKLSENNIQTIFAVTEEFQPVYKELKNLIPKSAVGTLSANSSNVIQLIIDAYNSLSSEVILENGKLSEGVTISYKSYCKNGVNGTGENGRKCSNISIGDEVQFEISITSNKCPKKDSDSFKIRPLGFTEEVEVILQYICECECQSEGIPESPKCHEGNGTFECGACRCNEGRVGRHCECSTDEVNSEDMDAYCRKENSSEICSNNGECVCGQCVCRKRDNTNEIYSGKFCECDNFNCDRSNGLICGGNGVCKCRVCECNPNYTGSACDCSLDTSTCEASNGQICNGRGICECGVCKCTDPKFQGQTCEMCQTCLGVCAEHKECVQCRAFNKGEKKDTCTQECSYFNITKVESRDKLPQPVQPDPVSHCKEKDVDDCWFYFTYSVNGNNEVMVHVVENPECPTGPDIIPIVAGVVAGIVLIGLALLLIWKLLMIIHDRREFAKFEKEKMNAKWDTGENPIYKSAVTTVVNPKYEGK

IC50 [1] [nM] | melting point [°C] | SMILES
< 1000 | 126 | Cc1ccccc1NC(=O)Nc1ccc(CNC(=O)CC(C(=O)Nc2ccc(C(=O)O)cc2)c2ccccc2)cc1 (centres unmarked) [Example 4, 4-[(4-{[4-({[(2-Methyl-phenyl)amino]carbonyl}-ami-no)benzyl]amino}-4-oxo-2-phenyl-butanoyl)-ami-no]benzoic acid]
< 1000 | 169 | Cc1ccccc1NC(=O)Nc1ccc(NC(=O)C(CC(=O)Nc2ccc(C(=O)O)cc2)c2ccccc2)cc1 (centres unmarked) [Example 1, 4-[(4-{[4-({[(2-Methylphenyl)amino]carbonyl}amino)phenyl]-amino}-4-oxo-3-phenylbutanoyl)amino]benzoic acid]
> 10000 |  | Cc1ccccc1NC(=O)Nc1ccc(NC(=O)CC(C(=O)Nc2ccc(C(=O)O)cc2)c2ccccc2)cc1 (centres unmarked) [Example 2, 4-[(4-{[4-({[(2-Methyl-phenyl)amino]carbonyl}-ami-no)phenyl]amino}-4-oxo-2-phenyl-butanoyl)amino]benzoic acid]
